From patent US8524755B2 (priority 2009, dated 2013)

Key:
Dopamine D4.4 (h) = biological target: T1, Dopamine D4.4 (h) (Homo sapiens, UniProt P21917); experiment: Binding D4.4 (h) (aa); conditions: read-out: % Inhibition of Control Specific Binding @ 10 μM
T1 construct: expressed in transfected cells; host or cells: CHO cells
T1 sequence (P21917 1-419): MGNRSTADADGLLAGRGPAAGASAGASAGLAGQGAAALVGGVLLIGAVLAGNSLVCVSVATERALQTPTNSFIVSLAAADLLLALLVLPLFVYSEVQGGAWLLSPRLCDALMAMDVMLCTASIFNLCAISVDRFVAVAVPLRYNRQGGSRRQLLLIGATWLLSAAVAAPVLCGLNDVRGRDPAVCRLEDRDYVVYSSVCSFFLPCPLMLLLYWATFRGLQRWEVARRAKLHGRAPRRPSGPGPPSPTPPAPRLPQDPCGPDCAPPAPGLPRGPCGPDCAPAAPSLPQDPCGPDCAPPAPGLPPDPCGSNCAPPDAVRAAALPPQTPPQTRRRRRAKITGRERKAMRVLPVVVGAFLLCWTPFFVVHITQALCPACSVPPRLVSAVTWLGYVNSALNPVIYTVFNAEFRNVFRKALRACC
Experimental: (§1) Radioligand binding assay methods utilized to measure the activity of compounds of the invention will be familiar to those skilled in the art. In each assay case, the assay components such as, for example, the cell-type, ligand, reference compound and the like, will be familiar to practitioners of such an assay.
(§2) Analysis and Expression of Results: Compounds of the invention were tested in the biochemical assays and percent inhibition of specific binding was determined. The specific ligand binding to the receptors is defined as the difference between the total binding and the nonspecific binding determined in the presence of an excess of unlabelled ligand. The results are expressed as a percent inhibition of control specific binding (100−((measured specific binding/control specific binding)×100)) obtained in the presence of test compounds.

Adenosine A2A (h) = biological target: T2, Adenosine A2A (h) (Homo sapiens, UniProt P29274); experiment: Binding A2A (h) (ag); conditions: read-out: % Inhibition of Control Specific Binding @ 10 μM
T2 construct: expressed in transfected cells; host or cells: HEK-293 cells
T2 sequence (P29274 whole entry): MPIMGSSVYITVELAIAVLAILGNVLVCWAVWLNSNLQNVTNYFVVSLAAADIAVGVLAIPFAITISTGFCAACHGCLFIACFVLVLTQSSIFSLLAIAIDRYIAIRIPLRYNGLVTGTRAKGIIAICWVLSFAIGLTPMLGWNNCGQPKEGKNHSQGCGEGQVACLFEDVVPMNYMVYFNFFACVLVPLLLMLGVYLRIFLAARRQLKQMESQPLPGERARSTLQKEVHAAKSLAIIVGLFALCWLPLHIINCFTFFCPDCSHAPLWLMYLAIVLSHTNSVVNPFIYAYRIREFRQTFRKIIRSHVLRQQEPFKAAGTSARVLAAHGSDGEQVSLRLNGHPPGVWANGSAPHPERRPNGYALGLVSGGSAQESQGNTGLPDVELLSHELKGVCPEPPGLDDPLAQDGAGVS
Experimental: as §1, §2

NOP (ORL1) (h) = biological target: T3, NOP (ORL1) (h) (Homo sapiens, UniProt P41146); experiment: Binding NOP (ORL1) (h) (ag); conditions: read-out: % Inhibition of Control Specific Binding @ 10 μM
T3 construct: expressed in transfected cells; host or cells: HEK-293 cells
Experimental: as §1, §2

β2 (h) = biological target: T4, β2 (h) (Homo sapiens, UniProt P07550); experiment: Binding β2 (h) (ag); conditions: read-out: % Inhibition of Control Specific Binding @ 10 μM
T4 construct: expressed in transfected cells; host or cells: CHO cells
T4 sequence (P07550 whole entry): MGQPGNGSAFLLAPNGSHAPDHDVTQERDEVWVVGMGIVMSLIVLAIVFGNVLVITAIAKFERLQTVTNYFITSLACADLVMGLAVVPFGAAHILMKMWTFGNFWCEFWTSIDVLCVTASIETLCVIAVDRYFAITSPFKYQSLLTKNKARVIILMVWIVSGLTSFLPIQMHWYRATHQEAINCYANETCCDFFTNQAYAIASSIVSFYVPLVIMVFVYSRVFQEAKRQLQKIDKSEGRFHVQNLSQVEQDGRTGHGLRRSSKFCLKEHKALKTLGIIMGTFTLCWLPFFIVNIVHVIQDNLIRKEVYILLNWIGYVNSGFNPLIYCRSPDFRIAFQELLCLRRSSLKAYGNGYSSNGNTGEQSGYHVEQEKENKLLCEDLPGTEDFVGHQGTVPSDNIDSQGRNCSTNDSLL
Experimental: as §1, §2

[1] = system: Ca^2+ channel (L, diltiazem site) (benzothiazepines); experiment: Binding Ca2+ channel (L, diltiazem site) (aa); set-up: species or system rat
Experimental: as §1, §2

[2] = biological target: T5, choline transporter (CHT1) (h) (Homo sapiens, UniProt Q9GZV3); experiment: Binding choline transporter (CHT1) (h) (aa); conditions: read-out: % Inhibition of Control Specific Binding @ 10 μM
T5 construct: expressed in transfected cells; host or cells: CHO cells
T5 sequence (Q9GZV3 1-580): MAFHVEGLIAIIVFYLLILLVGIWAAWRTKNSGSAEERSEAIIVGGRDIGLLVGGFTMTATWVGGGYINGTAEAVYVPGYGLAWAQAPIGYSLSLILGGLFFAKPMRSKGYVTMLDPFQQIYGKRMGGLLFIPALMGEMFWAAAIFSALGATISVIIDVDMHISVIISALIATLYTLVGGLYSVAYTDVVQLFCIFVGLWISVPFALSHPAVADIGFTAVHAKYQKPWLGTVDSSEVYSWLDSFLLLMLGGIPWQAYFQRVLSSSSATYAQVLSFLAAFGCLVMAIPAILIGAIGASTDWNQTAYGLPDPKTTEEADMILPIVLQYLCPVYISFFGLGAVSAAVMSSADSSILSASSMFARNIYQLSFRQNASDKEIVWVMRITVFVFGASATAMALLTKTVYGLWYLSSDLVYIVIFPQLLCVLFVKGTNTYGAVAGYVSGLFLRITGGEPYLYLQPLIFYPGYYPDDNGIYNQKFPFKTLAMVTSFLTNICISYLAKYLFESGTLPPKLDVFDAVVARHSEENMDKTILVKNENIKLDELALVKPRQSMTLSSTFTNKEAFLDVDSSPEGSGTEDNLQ
Experimental: as §1, §2

opioid (ns) = experiment: Binding opioid (ns) (aa); set-up: species or system rat
Experimental: as §1, §2

Histamine H2 (h) = biological target: T6, Histamine H2 (h) (Homo sapiens, UniProt P25021); experiment: Binding H2 (h) (aa); conditions: read-out: % Inhibition of Control Specific Binding @ 10 μM
T6 construct: expressed in transfected cells; host or cells: CHO cells
T6 sequence (P25021 whole entry): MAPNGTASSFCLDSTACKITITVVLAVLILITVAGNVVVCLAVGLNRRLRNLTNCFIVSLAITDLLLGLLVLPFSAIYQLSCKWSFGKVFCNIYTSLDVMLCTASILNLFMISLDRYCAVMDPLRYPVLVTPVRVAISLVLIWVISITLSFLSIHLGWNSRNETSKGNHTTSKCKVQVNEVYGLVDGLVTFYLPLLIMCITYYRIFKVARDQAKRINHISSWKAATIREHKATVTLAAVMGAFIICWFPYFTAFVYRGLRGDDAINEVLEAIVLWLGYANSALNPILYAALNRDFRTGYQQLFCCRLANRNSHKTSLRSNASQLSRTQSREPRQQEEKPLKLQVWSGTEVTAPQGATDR
Experimental: as §1, §2

PDE3A (h) = biological target: T7, PDE3A (h) (Homo sapiens, UniProt Q14432); experiment: Enzyme assay PDE3A (h); format: biochemical; conditions: read-out: % Inhibition of Control Values @ 10 μM
T7 construct: host or cells: Sf9 cells
T7 sequence (Q14432 whole entry): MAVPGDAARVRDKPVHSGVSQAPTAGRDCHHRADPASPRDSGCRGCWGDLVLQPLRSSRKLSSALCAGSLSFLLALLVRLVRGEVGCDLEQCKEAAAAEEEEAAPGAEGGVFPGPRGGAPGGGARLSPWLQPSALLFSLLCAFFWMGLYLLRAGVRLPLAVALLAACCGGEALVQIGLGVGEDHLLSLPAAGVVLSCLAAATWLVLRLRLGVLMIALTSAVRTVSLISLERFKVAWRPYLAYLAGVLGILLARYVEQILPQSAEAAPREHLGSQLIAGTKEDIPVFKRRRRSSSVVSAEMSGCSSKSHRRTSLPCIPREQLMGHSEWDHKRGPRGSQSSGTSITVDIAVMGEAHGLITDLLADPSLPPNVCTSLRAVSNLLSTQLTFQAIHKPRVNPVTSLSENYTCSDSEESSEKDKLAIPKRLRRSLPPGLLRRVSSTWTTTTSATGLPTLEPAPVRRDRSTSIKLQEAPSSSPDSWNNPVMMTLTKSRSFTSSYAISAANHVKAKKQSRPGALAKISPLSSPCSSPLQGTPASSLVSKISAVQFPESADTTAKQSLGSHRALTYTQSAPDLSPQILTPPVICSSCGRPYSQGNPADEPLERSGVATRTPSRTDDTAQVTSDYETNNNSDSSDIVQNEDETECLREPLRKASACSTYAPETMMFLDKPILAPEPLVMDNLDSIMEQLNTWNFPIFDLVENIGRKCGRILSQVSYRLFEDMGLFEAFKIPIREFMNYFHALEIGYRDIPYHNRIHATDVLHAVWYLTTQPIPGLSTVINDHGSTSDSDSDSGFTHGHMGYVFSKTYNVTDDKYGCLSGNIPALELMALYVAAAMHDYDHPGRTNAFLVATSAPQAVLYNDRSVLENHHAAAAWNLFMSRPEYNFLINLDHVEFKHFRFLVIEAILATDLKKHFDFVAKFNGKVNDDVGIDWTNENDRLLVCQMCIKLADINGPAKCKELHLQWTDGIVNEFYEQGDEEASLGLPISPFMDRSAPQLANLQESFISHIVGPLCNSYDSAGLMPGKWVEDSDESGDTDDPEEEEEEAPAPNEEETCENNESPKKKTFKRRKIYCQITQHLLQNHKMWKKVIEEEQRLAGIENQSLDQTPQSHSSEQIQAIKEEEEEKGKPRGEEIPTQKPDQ
Text: (§3) The enzyme assays provided below will be familiar to those skilled in the art.
(§4) Analysis and Expression of Results: The results are expressed as a percent of control specific activity ((measured specific activity/control specific activity)×100) obtained in the presence of the test compounds.

hERG = biological target: T8, hERG (Homo sapiens, UniProt Q12809); experiment: Binding hERG (membrane preparation) (aa); conditions: read-out: % Inhibition of Control Specific Binding @ 10 μM
T8 construct: expressed in transfected cells; host or cells: HEK-293 cells
T8 sequence (Q12809 whole entry): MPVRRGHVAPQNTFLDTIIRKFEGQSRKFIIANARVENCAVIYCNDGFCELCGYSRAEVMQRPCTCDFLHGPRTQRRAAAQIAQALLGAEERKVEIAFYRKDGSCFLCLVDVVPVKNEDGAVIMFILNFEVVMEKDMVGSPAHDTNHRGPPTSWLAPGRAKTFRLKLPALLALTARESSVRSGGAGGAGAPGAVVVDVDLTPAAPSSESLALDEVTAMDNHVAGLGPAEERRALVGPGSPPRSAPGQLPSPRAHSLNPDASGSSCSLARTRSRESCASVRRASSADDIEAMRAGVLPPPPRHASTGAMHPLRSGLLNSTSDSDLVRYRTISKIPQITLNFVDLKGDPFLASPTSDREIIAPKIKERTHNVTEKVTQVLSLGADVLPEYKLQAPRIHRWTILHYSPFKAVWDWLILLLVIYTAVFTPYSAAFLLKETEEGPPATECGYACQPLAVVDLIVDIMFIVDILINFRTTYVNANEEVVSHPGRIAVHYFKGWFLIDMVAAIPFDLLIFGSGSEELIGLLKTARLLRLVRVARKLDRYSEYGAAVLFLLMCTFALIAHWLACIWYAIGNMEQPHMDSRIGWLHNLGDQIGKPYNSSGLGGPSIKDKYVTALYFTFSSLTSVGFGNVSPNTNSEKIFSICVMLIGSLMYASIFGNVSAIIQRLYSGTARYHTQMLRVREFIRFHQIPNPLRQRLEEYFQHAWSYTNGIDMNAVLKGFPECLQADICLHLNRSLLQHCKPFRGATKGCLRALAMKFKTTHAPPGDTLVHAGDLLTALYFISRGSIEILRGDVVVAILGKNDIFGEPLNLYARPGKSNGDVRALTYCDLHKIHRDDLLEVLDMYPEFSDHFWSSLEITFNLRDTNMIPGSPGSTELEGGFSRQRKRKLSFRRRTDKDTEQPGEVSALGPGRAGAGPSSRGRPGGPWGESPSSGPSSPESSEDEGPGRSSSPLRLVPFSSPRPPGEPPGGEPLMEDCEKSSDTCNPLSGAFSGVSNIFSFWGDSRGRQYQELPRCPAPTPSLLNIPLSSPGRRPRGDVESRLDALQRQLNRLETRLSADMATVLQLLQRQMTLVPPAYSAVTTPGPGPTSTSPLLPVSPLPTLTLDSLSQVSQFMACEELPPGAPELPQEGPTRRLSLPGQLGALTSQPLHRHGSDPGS
Experimental: as §1, §2

acetylcholinesterase (h) = biological target: T9, acetylcholinesterase (h) (Homo sapiens, UniProt P22303); experiment: Enzyme assay acetylcholinesterase (h); format: biochemical; conditions: read-out: % Inhibition of Control Values @ 10 μM
T9 construct: host or cells: HEK-293 cells
T9 sequence (P22303 32-614): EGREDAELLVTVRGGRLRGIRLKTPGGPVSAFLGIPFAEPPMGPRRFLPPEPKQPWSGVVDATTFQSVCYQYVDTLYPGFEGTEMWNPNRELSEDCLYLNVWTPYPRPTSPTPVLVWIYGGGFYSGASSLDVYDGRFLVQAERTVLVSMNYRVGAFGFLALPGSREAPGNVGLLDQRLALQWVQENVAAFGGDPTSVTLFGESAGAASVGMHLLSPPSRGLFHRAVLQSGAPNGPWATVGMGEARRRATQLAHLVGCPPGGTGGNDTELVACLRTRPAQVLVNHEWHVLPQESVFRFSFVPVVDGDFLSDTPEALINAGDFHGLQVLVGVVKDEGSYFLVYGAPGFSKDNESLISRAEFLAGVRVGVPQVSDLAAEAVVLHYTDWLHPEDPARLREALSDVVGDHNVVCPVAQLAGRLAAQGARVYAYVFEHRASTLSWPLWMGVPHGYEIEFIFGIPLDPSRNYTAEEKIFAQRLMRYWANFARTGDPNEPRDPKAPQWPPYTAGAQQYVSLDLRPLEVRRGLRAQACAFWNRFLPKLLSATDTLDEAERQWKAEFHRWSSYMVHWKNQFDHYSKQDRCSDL
Text: as §3, §4

AMPA = experiment: Binding AMPA (ag); set-up: species or system rat
Experimental: as §1, §2

Angiotensin AT2 (h) = biological target: T10, Angiotensin AT2 (h) (Homo sapiens, UniProt P50052); experiment: Binding AT2 (h); conditions: AT2 (h) (aa), read-out: % Inhibition of Control Specific Binding @ 10 μM
T10 construct: expressed in transfected cells; host or cells: CHO cells
T10 sequence (P50052 1-363): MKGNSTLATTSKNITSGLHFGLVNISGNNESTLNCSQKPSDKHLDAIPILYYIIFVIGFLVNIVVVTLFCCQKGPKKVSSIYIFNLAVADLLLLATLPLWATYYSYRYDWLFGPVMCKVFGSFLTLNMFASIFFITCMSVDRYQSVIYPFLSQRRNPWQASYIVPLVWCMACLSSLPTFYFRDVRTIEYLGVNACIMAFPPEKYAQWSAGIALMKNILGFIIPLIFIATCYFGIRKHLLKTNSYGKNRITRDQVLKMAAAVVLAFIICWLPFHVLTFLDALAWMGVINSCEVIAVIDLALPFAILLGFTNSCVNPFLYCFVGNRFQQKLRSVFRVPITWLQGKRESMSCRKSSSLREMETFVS
Experimental: as §1, §2

PDE2A (h) = biological target: T11, PDE2A (h) (Homo sapiens, UniProt O00408); experiment: Enzyme assay PDE2A (h); format: biochemical; conditions: read-out: % Inhibition of Control Values @ 10 μM
T11 construct: host or cells: Sf9 cells
T11 sequence (O00408 whole entry): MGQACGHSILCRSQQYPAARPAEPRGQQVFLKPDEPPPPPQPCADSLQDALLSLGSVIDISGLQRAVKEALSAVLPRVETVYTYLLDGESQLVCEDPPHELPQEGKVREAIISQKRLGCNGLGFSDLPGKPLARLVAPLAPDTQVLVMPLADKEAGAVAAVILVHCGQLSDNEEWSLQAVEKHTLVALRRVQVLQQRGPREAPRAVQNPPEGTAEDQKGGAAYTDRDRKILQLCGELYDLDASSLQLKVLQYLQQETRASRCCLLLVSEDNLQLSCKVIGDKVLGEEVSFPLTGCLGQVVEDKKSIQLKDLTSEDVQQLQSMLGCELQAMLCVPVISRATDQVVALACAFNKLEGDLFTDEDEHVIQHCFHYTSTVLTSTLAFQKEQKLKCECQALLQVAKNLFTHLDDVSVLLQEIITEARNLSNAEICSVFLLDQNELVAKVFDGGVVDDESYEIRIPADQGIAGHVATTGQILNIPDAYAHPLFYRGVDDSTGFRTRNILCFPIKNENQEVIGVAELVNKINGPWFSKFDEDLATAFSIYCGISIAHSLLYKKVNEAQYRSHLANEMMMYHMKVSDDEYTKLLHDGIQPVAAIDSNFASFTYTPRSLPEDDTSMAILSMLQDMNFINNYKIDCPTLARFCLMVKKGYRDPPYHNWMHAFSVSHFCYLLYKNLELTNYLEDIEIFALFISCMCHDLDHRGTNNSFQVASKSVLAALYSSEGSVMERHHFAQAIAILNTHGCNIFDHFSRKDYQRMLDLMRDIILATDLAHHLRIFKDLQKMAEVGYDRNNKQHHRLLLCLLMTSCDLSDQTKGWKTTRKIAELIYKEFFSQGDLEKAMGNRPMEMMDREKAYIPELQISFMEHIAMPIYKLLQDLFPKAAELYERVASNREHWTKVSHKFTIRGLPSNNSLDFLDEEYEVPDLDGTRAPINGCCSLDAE
Text: as §3, §4

dopamine transporter (h) = biological target: T12, dopamine transporter (h) (Homo sapiens, UniProt Q01959); experiment: Binding dopamine transporter (h) (aa); conditions: read-out: % Inhibition of Control Specific Binding @ 10 μM
T12 construct: expressed in transfected cells; host or cells: CHO cells
Experimental: as §1, §2

[3] = system: Ca^2+ channel (L, verapamil site) (phenylalkylamine); experiment: Binding Ca2+ channel (L, verapamil site) (aa); set-up: species or system rat
Experimental: as §1, §2

GABA (ns) = experiment: Binding GABA (ns) (ag); set-up: species or system rat
Experimental: as §1, §2

Thyroid hormone TR (TH) = experiment: Binding TR (TH) (ag); set-up: species or system rat
Experimental: as §1, §2

| Structure (SMILES) | inhibition at 10 µM (Dopamine D4.4 (h)) [%] | inhibition at 10 µM (Adenosine A2A (h)) [%] | inhibition at 10 µM (NOP (ORL1) (h)) [%] | inhibition at 10 µM (β2 (h)) [%] | % Inhibition of Control Specific Binding @ 10 μM [1] [%] | inhibition at 10 µM [2] [%] | % Inhibition of Control Specific Binding @ 10 μM (opioid (ns)) [%] | inhibition at 10 µM (Histamine H2 (h)) [%] | inhibition at 10 µM (PDE3A (h)) [%] | inhibition at 10 µM (hERG) [%] | inhibition at 10 µM (acetylcholinesterase (h)) [%] | % Inhibition of Control Specific Binding @ 10 μM (AMPA) [%] | inhibition at 10 µM (Angiotensin AT2 (h)) [%] | inhibition at 10 µM (PDE2A (h)) [%] | inhibition at 10 µM (dopamine transporter (h)) [%] | % Inhibition of Control Specific Binding @ 10 μM [3] [%] | % Inhibition of Control Specific Binding @ 10 μM (GABA (ns)) [%] | % Inhibition of Control Specific Binding @ 10 μM (Thyroid hormone TR (TH)) [%] |
| --- | --- | --- | --- | --- | --- | --- | --- | --- | --- | --- | --- | --- | --- | --- | --- | --- | --- | --- |
| CC1(C)C(=O)N(c2ccc(C#N)c(C(F)(F)F)c2)C(=S)N1c1ccc(C(=O)O)c(F)c1 [(MI), 4-(3-(4-cyano-3-(trifluoromethyl)phenyl)-5,5-dimethyl-4-oxo-2-thioxoimidazolidin-1-yl)-2-fluorobenzoic acid] | 1 | 10 | -10 | 6 | 2 | -16 | −6 | -41 | 3 | -39 | 51 | 1 | -1 | 12 | 32 | −2 | −12 | −7 |
| CC1(C)C(=O)N(c2ccc(C#N)c(C(F)(F)F)c2)C(=S)N1c1ccc(C(N)=O)c(F)c1 [(MII), 4-(3-(4-Cyano-3-(trifluoromethyl)phenyl)-5,5-dimethyl-4-oxo-2-thioxoimidazolidin-1-yl)-2-fluorobenzamide] | 9 | -5 | -4 | -3 | 22 | -22 | −14 | -27 | 0 | 7 | 9 | −10 | -6 | 2 | 23 | −13 | 0 | 0 |
| CC1(C)C(=O)N(c2ccc(C#N)c(C(F)(F)F)c2)C(=O)N1c1ccc(C(N)=O)c(F)c1 [(MIII), 4-(3-(4-cyano-3-(trifluoromethyl)phenyl)-5,5-dimethyl-2,4-dioxoimidazolidin-1-yl)-2-fluorobenzamide] | 13 | 2 | 0 | -6 | −2 | -13 | −15 | -19 | 4 | 8 | -1 | −2 | -2 | 2 | 13 | −1 | −10 | −9 |
| CNC(=O)c1ccc(N2C(=O)N(c3ccc(C#N)c(C(F)(F)F)c3)C(=O)C2(C)C)cc1F [(MIV), 4-(3-(4-cyano-3-(trifluoromethyl)phenyl)-5,5-dimethyl-2,4-dioxoimidazolidin-1-yl)-2-fluoro-N-methylbenzamide] | -15 | 3 | -2 | -10 | 1 | 10 | −10 | -20 | 2 | 10 | 23 | −4 | 1 | 0 | 7 | −5 | 5 | −2 |
